Consider 1 molecule from US20250034586A1, “METHOD FOR EDITING BANANA GENES” (Tropic Biosciences UK Limited, priority 2021, published 2025).

Structures are written as SMILES.

Test [1] concerns PPO2, Ma07_g03540. The test is described as follows: Trait co-editing in selected embryos (PBE #3). It is filed as cell-based, banana. Conditions: for PPO2 edited embryos total: 16 embryos tested. The method, then: (§1) We transformed ECS as described previously in Example 6, using the new co-editing plasmids detailed in Table 11 above. Embryos were regenerated as detailed previously, either on media without selection, with 25 mg/L G418, 25 μg/L CSF or 50 μg/L CSF. Initial genotyping of all plasmids tested:
(§2) • All with CsVMV-rAPOBEC1 CBE (rAPOBEC+nCas9 (D10A) PBE from Zong et al. 2017*) and nosP-NptII • pMol_0925 (sgGFP-pNOS::Kan::tOCS-pCsVMV::nCas9PBE1::tg7-Dummy-pTaU6::sg1GFP_58-pTaU6::sg2GFP_59) • pMol_0934 (sgGFP, sgALS1-pNOS::Kan::tOCS-pCsVMV::nCas9PBE1::tg7-taU6::MaALS1sg2_2021-pTaU6::sg1GFP_58-pTaU6::sg2GFP_59) • pMol_0935 (sgGFP, sgALS2-pNOS::Kan::tOCS-pCsVMV::nCas9PBE1::tg7-taU6::MaALS2sg2_2023-pTaU6::sg1GFP_58-pTaU6::sg2GFP_59) • pMol_0926 (sgPPO2, sgALS1-pNOS::Kan::tOCS-pCsVMV::nCas9PBE1::tg7-taU6::MaALS1sg2_2021-pTaU6::sg1PPO2_2961-pTaU6::sg2PPO2_2962-pTaU6::sg3PPO2_2963) • pMol_0927 (sgPPO2, sgALS1-pNOS::Kan::tOCS-pCsVMV::nCas9PBE1::tg7-taU6::MaALS1sg2_2021-pTaU6::sg3PPO2_2963-pTaU6::sg4PPO2_2964) • pMol_0928 (sgACO1, sgALS1-pNOS::Kan::tOCS-pCsVMV::nCas9PBE1::tg7-taU6::MaALS1sg2_2021-pTaU6::sg1ACO1_2965-pTaU6::sg2ACO1_2966-pTaU6::sg3ACO1_2967) • pMol_0929 (sgPPO2, sgALS2-pNOS::Kan::tOCS-pCsVMV::nCas9PBE1::tg7-taU6::MaALS2sg2_2023-pTaU6::sg1PPO2_2961-pTaU6::sg2PPO2_2962-pTaU6::sg3PPO2_2963) • pMol_0930 (sgPPO2, sgALS2-pNOS::Kan::tOCS-pCsVMV::nCas9PBE1::tg7-taU6::MaALS2sg2_2023-pTaU6::sg3PPO2_2963-pTaU6::sg4PPO2_2964) • pMol_0931 (sgACO1, sgALS2-pNOS::Kan::tOCS-pCsVMV::nCas9PBE1::tg7-taU6::MaALS2sg2_2023-pTaU6::sg1ACO1_2965-pTaU6::sg2ACO1_2966-pTaU6::sg3ACO1_2967) ECS were left to ‘recover’ after transformation for 1 week in CS+cefo 300 mg/L. We regenerated embryos in 4 different conditions: • 1. No selection • 2. Stable G418 selection (in EDM only 2-3 months) from PBE #3 only (PBE #1/2 plasmids only have mCherry, not NptII) • 3. 25 μg/L chlorsulfuron (in EDM only 2-3 months) • 4. 50 μg/L chlorsulfuron (in EDM only 2-3 months)
(§3) gDNA from embryos and plantlets was extracted and qPCR was used to test for the presence of integrated tDNA in the plant genome. Three independent qPCRs were run on each sample with different sets of primers (listed below) spanning the tDNA, ranging from the left to right border. An additional qPCR was run on an endogenous banana gene (actin) for normalisation of Ct values. All qPCRs were run on the LightCycler® 96 System (Roche) using PowerUp™ SYBR® Green Master Mix (Thermo Fisher Scientific™).
(§4) For edit validation, amplicons for each target gene (als1, als2, ppo2, aco1) were made using Q5® High-Fidelity 2× Master Mix (New England Biolabs, NEB) using reaction settings listed below. PCR products were purified using Monarch® PCR & DNA Cleanup Kit (NEB) according to manufacturer's specifications. The amplicons were after validated by Sanger sequencing.

Test [2] concerns ACO1, Ma01_g11540. Kind of test: Trait co-editing in selected embryos (PBE #3). The test is classed as cell-based, banana. The method, then:
as §1, §2, §3, §4

Test [3] has as its system banana embryos or leaf material. The test is described as follows: Comparison of selection using ALS inhibitor, G418 or hygromycin (genotyping of embryos or leaf material). The test is classed as cell-based. An excerpt: In every case, regenerated material was transformed with constructs containing T-DNA that would generate resistance in positive transformants.

Take `COc1nc(C)nc(NC(=O)NS(=O)(=O)c2ccccc2Cl)n1` [CSF, chlorsulfuron]: the “Percentage edited PPO2 embryos” value is listed as 37.5 in test [1] (25CSF selection) and 43.75 in test [1] (50CSF selection). The entries for the “PPO2 edited embryos total” value in test [1] (25CSF selection) and in test [1] (50CSF selection) were 6 and 7, respectively. For the same molecule, the “Percentage edited ACO1 embryos” value in test [2] (25CSF selection) turned out to be 75; in test [2] (50CSF selection) it was 100. The “ACO1 edited embryos total” value in test [2] (25CSF selection, 8 embryos tested) is 6; in test [2] (50CSF selection, 7 embryos tested), 7. Also, the Editing frequency in test [3] (CSF selected material) is listed as 90-94%; in test [3] (Embryos, CSF selection), 57/63 = 90.5%; in test [3] (Shoots, CSF selection), 34/36 = 94.4%. The “Efficiency of generating transgenic lines of banana” value in test [3] (CSF selection, embryos and shoots) is recorded as 75-84%. Further, the Non-transgenic edited in test [3] (Embryos, CSF selection) is listed as 19/584 = 3.2%; in test [3] (Shoots, CSF selection) it was 3/46 = 6.5%. For the same molecule, the Transgenic frequency in test [3] (Embryos, CSF selection) is 344/408 = 84.3%; in test [3] (Shoots, CSF selection), 53/70 = 75.7%.
